In the METLIN SMRT retention time set (Domingo-Almenara et al. 2019):

Assay: gradient 5% acetonitrile 3 min, to 50% in 2 min, to 85% in 15 min, held 3 min, 100 µL/min
Settings: column: Zorbax Extend-C18 2.1 x 50 mm; eluents: water / acetonitrile, 0.1% formic acid
Method in brief: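 A Zorbax Extend-C18 column (2.1 × 50 mm, 1.8 μm) run at 100 μL/min with water and acetonitrile, both containing 0.1% formic acid, separated mixtures of ~100 pure standards. The HPLC was coupled to a quadrupole time-of-flight mass spectrometer operated in positive and negative ionization mode, with dead and dwell volumes of 40 μL and 900 μL. Each retention time was taken from a computationally picked adduct peak that was then manually inspected.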

First: COCCCNC(=O)Cn1nc(C)c2nn(-c3ccc(F)cc3)c(-n3cccc3)c2c1=O
Second: Cc1cccc(CNC(=O)CN2CCN(Cc3ccc(F)cc3)C(=O)C2=O)c1
The RP-LC retention time of the first is higher: 795 s for the first, 740 s for the second.

First: COc1cc(/C=C2\SC(=O)N(CC(=O)Nc3nccs3)C2=O)cc(OC)c1OC
Second: COc1ccc(OC)c(CNC(=O)c2c(C)sc3ccn(CC(C)C)c(=O)c23)c1
The RP-LC retention time of the first is lower: 777 s for the first, 975 s for the second.

First: COc1ccc(-c2nc3cnccn3c2Nc2ccc(C(=O)NCCN3CCOCC3)cc2)cc1
Second: COC(=O)c1ccc(-c2nc3cnccn3c2Nc2ccc(C)cc2Br)cc1
The RP-LC retention time of the first is lower: 584 s for the first, 1060 s for the second.

Compared with O=C(NC1CCCCC1)N1CCCC(Cn2c(C3CC3)nc3cccnc32)C1 (stereo unspecified), CCN(CC)C(=O)Cn1c(C2CC(=O)N(C3CCCC3)C2)nc2ccccc21 (stereo unspecified) is lower in RP-LC retention time: 668 s for the first, 657 s for the second.

First: Cc1cc(C)cc(NC(=O)Cc2csc3nc(-c4ccccc4)cn23)c1
Second: COc1cc(NC(=O)CCc2c(-c3ccc(F)cc3)nc3ccccn23)cc(OC)c1
The RP-LC retention time of the first is higher: 880 s for the first, 672 s for the second.

Going from O=C(CN1CCN(C(=O)c2sc3ncccc3c2-n2cccc2)CC1)N1CCCC1 to O=C(c1csc(N2CCN(c3ccccc3)CC2)n1)N1CCN(c2ccccn2)CC1, the RP-LC retention time rises from 607 s to 685 s.

Compared with Cc1ccc(C)c(CN2CCC(CNC(=O)C3CCCN(c4cc(=O)n(C)c(=O)n4C)C3)CC2)c1 (stereo unspecified), COCCNC(=O)C1CCCN(c2cc(=O)n(C)c(=O)n2C)C1 (stereo unspecified) is lower in RP-LC retention time: 599 s for the first, 567 s for the second.

First: O=c1c(=O)n(-c2ccccc2)ccn1Cc1nc(-c2cccc(F)c2)no1
Second: Cc1cccc(-c2noc(CN3C(=O)COc4ccccc43)n2)c1
The RP-LC retention time of the first is lower: 805 s for the first, 1030 s for the second.

Going from Cc1nnc2ccc(S(=O)(=O)Nc3ccc4c(c3)OCO4)cn12 to CNS(=O)(=O)CCCOc1ccc2c(c1)OCO2, the RP-LC retention time rises from 669 s to 697 s.

First: O=C(CCN1C(=O)c2cccc3cccc(c23)C1=O)NC1CCS(=O)(=O)C1 (stereo unspecified)
Second: CCC1Oc2ccc(S(=O)(=O)N3CCC(C(=O)Nc4cccc(OC)c4)CC3)cc2NC1=O (stereo unspecified)
The RP-LC retention time of the first is lower: 641 s for the first, 854 s for the second.

Compared with CCOC(=O)C1=C(CN2CCC(C(=O)OCC)CC2)NC(=O)NC1c1ccccc1 (stereo unspecified), CCOC(=O)C1=C(C)N(CC(=O)NC2CCCC2)c2ncnn2C1c1ccccc1 (stereo unspecified) is higher in RP-LC retention time: 643 s for the first, 666 s for the second.

Going from Cc1noc(CNC(=O)Cn2cnc3ccccc3c2=O)n1 to O=C(O)CCn1nnc2ccccc2c1=O, the RP-LC retention time rises from 576 s to 606 s.

Compared with CCOC(=O)N1CCN(C(=O)CSc2ccc(C)cc2)CC1, CCCNc1cc(N2CCC(CCC(=O)N3CCN(C(=O)OCC)CC3)CC2)ncn1 is lower in RP-LC retention time: 765 s for the first, 620 s for the second.

Going from CN(C)c1ccc(NC(=O)Cn2nc3c(Oc4ccc(Cl)cc4)nccn3c2=O)cc1 to Cc1nc(-c2ccc(-c3noc(COc4ccc(Cl)cc4)n3)cc2)cs1, the RP-LC retention time rises from 674 s to 1280 s.

Going from COc1ccc(-c2noc(-c3nc(-c4ccccc4F)no3)n2)cc1OC to COc1ccc(-c2noc(C3CC(=O)N(c4ccc(C)c(C)c4)C3)n2)cc1OC (stereo unspecified), the RP-LC retention time falls from 1110 s to 928 s.

Going from COCc1c(C(=O)O)nnn1-c1ccc2c(c1)CCC2 to COc1cccc(-c2nc(N3CCCCC3)ncc2C(=O)O)c1, the RP-LC retention time rises from 777 s to 950 s.

Going from Cc1nnc(-c2ccc(S(=O)(=O)N3CCCCCC3)o2)o1 to Cc1ccc(-c2nnc(-c3ccccc3)o2)cc1S(=O)(=O)N1CCOCC1, the RP-LC retention time rises from 834 s to 922 s.

Compared with O=C(c1ccc(Cl)s1)N1CCC(Oc2nc3c(F)cc(F)cc3s2)CC1, COc1ccc(CCC(=O)N2CCC(n3nnc4cc(F)ccc4c3=O)CC2)cc1 is lower in RP-LC retention time: 1140 s for the first, 784 s for the second.

First: O=C(c1ccccc1)N1C[C@@H]2C[C@H]1C[C@@H]2NS(=O)(=O)c1ccccc1
Second: O=C(NCc1nnc(SC/C=C/c2ccccc2)o1)c1ccccc1
The RP-LC retention time of the first is lower: 752 s for the first, 824 s for the second.

Going from Cc1ccc(N2C(=O)CC(N3CCC(C(N)=O)CC3)C2=O)cc1C (stereo unspecified) to Cc1ccc(NC(=O)CN2C(=O)C3CCCCN3c3ccc(S(=O)(=O)N(C)C)cc32)cc1C (stereo unspecified), the RP-LC retention time rises from 607 s to 922 s.

Going from N#CCSc1nnc2ccc3ccccc3n12 to Oc1ccc2ccc3[nH]cnc3c2c1, the RP-LC retention time falls from 639 s to 625 s.

Going from COc1ccc(CC(=O)N2CCN(c3ccc(-c4nc(C)cs4)cn3)CC2)cc1 to COc1ccc(C2Cn3nnc(C(=O)N4CCN(C(=O)c5cc(F)ccc5F)CC4)c3CO2)cc1 (stereo unspecified), the RP-LC retention time rises from 851 s to 872 s.

Compared with CCc1ccc(CNC(=O)C2CCN(C(=O)c3ncn4c3COC(c3ccccc3)C4)CC2)cc1 (stereo unspecified), COc1cccc(CC(=O)N2CCC(C(=O)NCc3csc(-c4cccs4)n3)CC2)c1 is higher in RP-LC retention time: 756 s for the first, 774 s for the second.

Compared with O=S(=O)(NCc1cccs1)c1cc(-c2noc(C3CCCC3)n2)cs1, COc1cccc(NC(=O)CN2CCC(c3nc(-c4cccs4)no3)CC2)c1 is lower in RP-LC retention time: 1110 s for the first, 680 s for the second.

Going from O=C(NCc1ccccc1)N1CC(Oc2cccc(-c3nc(-c4ccccc4)no3)c2)C1 to Cc1noc(-c2ccc(OC3CN(C(=O)c4ccoc4)C3)cc2)n1, the RP-LC retention time falls from 1130 s to 781 s.

First: Cc1cc(N2CCCC2)n2nc(CN(C)Cc3ccccc3)nc2n1
Second: CCN(CC)c1ccc(-c2nc3ncccn3c2NCc2ccccc2)cc1
The RP-LC retention time of the first is lower: 593 s for the first, 712 s for the second.

Going from CN(CCCNC(=O)Cn1c(=O)c2cccn2c2ccc(F)cc21)C1CCCCC1 to CCOCCCNC(=O)N1CCCCCC1c1ccc(C)cc1 (stereo unspecified), the RP-LC retention time rises from 635 s to 954 s.

First: Cc1csc(-c2cc(S(=O)(=O)Nc3ccc(Cl)cc3C)c(C)s2)n1
Second: Cc1ncn(CC(=O)Nc2cc(F)ccc2F)c(=O)c1C
The RP-LC retention time of the first is higher: 1140 s for the first, 658 s for the second.

First: COc1ccc(Cl)cc1S(=O)(=O)N(C)CC1(C)CCOCC1
Second: COCC1CN(S(=O)(=O)Cc2ccc(C)c(C)c2)CC12CCNCC2 (stereo unspecified)
The RP-LC retention time of the first is higher: 829 s for the first, 654 s for the second.

Going from O=C(Cc1nnc(-c2cnccn2)o1)Nc1cccc(C(F)(F)F)c1 to Cc1nnc2c(=O)n(CC(=O)NCc3ccc(F)cc3F)c3cccnc3n12, the RP-LC retention time falls from 780 s to 680 s.

First: Cc1cc(C)cc(S(=O)(=O)N2CCc3c(c(-c4nnc(-c5ccccc5F)o4)nn3C)C2)c1
Second: COc1ccc(S(=O)(=O)N2CCN(c3ccccn3)CC2)cc1OC
The RP-LC retention time of the first is higher: 998 s for the first, 588 s for the second.

Going from CCCCC(=O)N1c2nc(-c3ccc(F)cc3)nn2C2(CCCCC2)[C@@H]2CCCC[C@@H]21 to CCN(CCN(C)C)C(=O)CN1C(=O)C(Oc2ccc(F)cc2)C12CCCCC2 (stereo unspecified), the RP-LC retention time falls from 1210 s to 724 s.

First: COc1cc(OC)c(NC(=O)N2CCCC(C)(C(=O)NCc3ccc(F)cc3)C2)cc1Cl (stereo unspecified)
Second: COc1ccc(CNC(=O)NC2CCN(c3ccc(F)cc3)C2=O)cc1 (stereo unspecified)
The RP-LC retention time of the first is higher: 916 s for the first, 697 s for the second.

First: CCc1nc2cc(-c3noc(-c4ccc5ccccc5n4)n3)ccc2o1
Second: Cc1ccc(-c2csc(NC(=O)CCc3nc(CSc4nc5cc(C)ccc5o4)no3)n2)cc1
The RP-LC retention time of the first is lower: 1110 s for the first, 1210 s for the second.

Compared with CCOc1ccc(-n2ccn3c(CC(C)CC(=O)NC4CCCC4)nnc3c2=O)cc1 (stereo unspecified), O=C(CCc1conc1-c1ccc(F)cc1)NC1CCCCCC1 is higher in RP-LC retention time: 710 s for the first, 969 s for the second.

First: CCCNC(=O)c1cc(=O)[nH]c2ccccc12
Second: COc1ccccc1OCCNC(=O)C1CC(=O)N(c2n[nH]c3ccccc23)C1 (stereo unspecified)
The RP-LC retention time of the first is lower: 620 s for the first, 682 s for the second.

Compared with O=C(CC1CCOC2(CCN(Cc3cccs3)CC2)C1)NC1CC1 (stereo unspecified), O=C(N1CCCC1c1nc(CCOCC2CC2)no1)C1(c2ccccc2)CC1 (stereo unspecified) is higher in RP-LC retention time: 578 s for the first, 886 s for the second.

Compared with CCN1CCn2cc(S(=O)(=O)NCc3ccccc3Cl)cc2C1=O, Cc1ccccc1Oc1ccc(S(=O)(=O)NCCC(=O)O)cc1 is higher in RP-LC retention time: 713 s for the first, 759 s for the second.

Going from CCn1c(=O)c(N2CCC(C(=O)NCCc3c[nH]c4ccc(C)cc34)CC2)nc2cccnc21 to CCOC(=O)CNC(=O)N1CCN(Cc2nc3cccnc3n2-c2ccc(CC)cc2)CC1, the RP-LC retention time falls from 984 s to 654 s.

Compared with O=C(NCC1(c2cccs2)CCOCC1)C(=O)Nc1cccnc1, O=C(O)c1ccc(-c2ccc(N3CCCCCC3)nc2)cc1 is higher in RP-LC retention time: 600 s for the first, 623 s for the second.

First: COc1ccccc1C(CNC(=O)c1cc(=O)c2ccccc2o1)N(C)C (stereo unspecified)
Second: CCOc1ccccc1NC(=O)Nc1ccc2c(c1)CCN2S(=O)(=O)c1ccc(C)cc1
The RP-LC retention time of the first is lower: 606 s for the first, 1100 s for the second.

Going from CN1C(=O)NC(c2ccc(Cl)cc2)C2=C1CN(c1ccc(C(=O)O)cc1)C2=O (stereo unspecified) to Cc1ccc(-n2cc3c(c(C(=O)N4CCCC4)c2=O)CC(C)(C)CC3=O)cc1, the RP-LC retention time rises from 691 s to 758 s.

First: CCOc1ccc(-c2[nH]ncc2CN)cc1
Second: CCN(CC)c1ccc(C2C(C#N)=C(N)Oc3n[nH]c(C)c32)cc1 (stereo unspecified)
The RP-LC retention time of the first is higher: 575 s for the first, 546 s for the second.

First: CCC(=O)N1CCc2cc(C(=O)NCC3CCCO3)ccc21 (stereo unspecified)
Second: CN1C(=O)Cc2cc(NC(=O)c3ccno3)ccc21
The RP-LC retention time of the first is higher: 642 s for the first, 586 s for the second.

First: COc1ccc(S(=O)(=O)CCc2noc(C(=O)NCCc3ccc(SC)cc3)n2)cc1
Second: COCCCNCc1c(C(=O)O)c(C)n(Cc2ccc(Cl)cc2)c1C
The RP-LC retention time of the first is higher: 930 s for the first, 672 s for the second.

Compound N#Cc1cccc(C(=O)NC2CCN(c3cc(-c4ccc(F)cc4)[nH]n3)C2)c1 (stereo unspecified) has an RP-LC retention time of 712 s.
